# Several values for one entry are separate records, joined by “and”; a condition that tells them apart may be missing. Equal values may be shown once.
# Key:
# M230L-RTV = test: Phenotypic susceptibility assay, M230L-RTV; format: cell-based, HIV-1; settings: site-directed M230L alone
# Description: (§1) The resistance test vectors containing a functional luciferase gene cassette were constructed and host cells were transfected with the resistance test vector DNA. The resistant test vectors contained patient-derived reverse transcriptase and protease sequences that were either susceptible or resistant to the antiretroviral agents, such as nucleoside reverse transcriptase inhibitors, (NRTIs) non-nucleoside reverse transcriptase inhibitors […] protease inhibitors. The resistance test vector viral particles produced by transfecting the resistance test vector DNA into host cells, either in the presence or absence of PRIs, were used to infect target host cells grown either in the absence of NRTIs or NNRTIs, or in the presence of increasing concentrations of the drug. The amount of luciferase activity produced in infected target host cells in the presence of varying concentrations of drug was compared to the amount of luciferase produced in infected target host cells in the absence of drug. “Drug resistance” was measured as the amount of drug required to inhibit by 50% the luciferase activity detected in the absence of drug (inhibitory concentration 50%, IC50). The IC50 values were determined by plotting percent drug inhibition vs. log10 drug concentration. Stimulation of viral replication was measured as the percent increase in luciferase activity detected when infection occurs in the presence of drug as compared to in the absence of drug.
# (§2) Host cells were seeded in 10-cm-diameter dishes and were transfected several days after plating with resistance test vector plasmid DNA and the envelope expression vector. Transfections were performed using a calcium-phosphate precipitation procedure. The cell culture media containing the DNA precipitate was replaced with fresh medium, from one to 24 hours, after transfection. Cell culture media containing resistance test vector viral particles was harvested one to four days after transfection and was passed through a […] filter before being used to infect target host cells, or being stored at −80° C. HIV capsid protein (p24) levels in the harvested cell culture media were determined by an EIA method as described by the manufacturer (SAIC; Frederick, Md.). Before infection, target cells (293 and 293/T) were plated in cell culture media. Control infections were performed using cell culture media from mock transfections (no DNA) or transfections containing the resistance test vector plasmid DNA without the envelope expression plasmid. One to three or more days after infection, the media was removed and cell lysis buffer (Promega) was added to each well. Cell lysates were assayed for luciferase activity (FIG. 3). The inhibitory effect of the drug was determined using the following equation:
# (§3) % luciferase inhibition=1−(RLUluc[drug]÷RLUluc)×100
# (§4) where RLUluc [drug] is the Relative Light Unit of luciferase activity in infected cells in the presence of drug, and RLUluc is the Relative Light Unit of luciferase activity in infected cells in the absence of drug. IC50values were obtained from the sigmoidal curves that were generated from the data by plotting the percent inhibition of luciferase activity vs. the log10 drug concentration. The percent luciferase stimulation is the negative of the % inhibition calculated using the formula above.
# The M230L mutation was introduced into a wild-type (drug sensitive) resistance test vector using the mega-primer method for site-directed mutagenesis (Sakar and Sommar, Ibid.). The resulting resistance test vector containing the M230L mutation (M230L-RTV) was then tested using the phenotypic assay described earlier, and the results were compared to those determined using a genetically defined resistance test vector that was wild type at position 230. We determined the pattern of phenotypic susceptibility to the NNRTIs, delavirdine, nevirapine and efavirenz, in the M230L-RTV. […]
# [1] = test system: RTV-1033-3/106V/189V/227F; test: Phenotypic susceptibility assay, RTV-1033-3/106V/189V/227F; format: cell-based, HIV; settings: RTV-1033-3 with V106A, V189L and F227L reverted
# Description: as §1, §2, §3, §4
# (§5) A resistance test vector containing all of the mutations present in RTV-1033-3 except for V106A, V189L and F227L (RTV-1033-3/106V/189V/227F) was constructed and tested using the phenotypic assay described earlier. The results were compared to those determined using the parent RTV-1033-3. We determined the pattern of phenotypic susceptibility to the NNRTIs, delavirdine, nevirapine and efavirenz, in the reverted vector, RTV-1033-3/106V/189V/227F.
# K103N/M230L-RTV = test: Phenotypic susceptibility assay, K103N/M230L-RTV; format: cell-based, HIV-1; settings: site-directed K103N + M230L
# Description: as §1, §2, §3, §4
# The M230L mutation was tested alone and is described in Example 3 above. A resistance test vector containing the M230L mutation and the K103N mutation (K103N/M230L-RTV) was constructed and tested using the phenotypic assay described earlier, and the results were compared to those determined using a genetically defined resistance test vector that was wild type at positions 103 and 230. We determined the pattern of phenotypic susceptibility to the NNRTIs, delavirdine, nevirapine and efavirenz, in the K103N/M230L-RTV. […]
# RTV-K103N/I135T/V245E = test: Phenotypic susceptibility assay, RTV-K103N/I135T/V245E; format: cell-based, HIV-1; settings: site-directed K103N + I135T + V245E
# Description: as §1, §2, §3, §4
# A resistance test vector containing three mutations, K103N, I135T and V245E (RTV-K103N/I135T/V245E) was constructed and tested in the phenotypic assay described earlier. The results were compared to those determined using a genetically defined resistance test vector that was wild type at positions 103, 135 and 245. We determined the pattern of phenotypic susceptibility to the NNRTIs, delavirdine, nevirapine and efavirenz, in RTV-K103N.
# RTV-309-3/184M = test: Phenotypic susceptibility assay, RTV-309-3/184M; format: cell-based, HIV; settings: RTV-309-3 with M184V reverted
# Description: as §1, §2, §3, §4
# as §5, with “RTV-309-3” for “RTV-1033-3”, “the M184V (RTV-309-3/184M)” for “V106A, V189L and F227L (RTV-1033-3/106V/189V/227F)”, “RTV-309-3.” for “RTV-1033-3.”, “RTV-309-3/184M.” for “RTV-1033-3/106V/189V/227F.”
# RTV-010829/245V-297E = test: Phenotypic susceptibility assay, RTV-010829/245V-297E; format: cell-based, HIV; settings: for drug-dependent stimulation of viral replication: RTV-010829 with V245E to E297K reverted; for reductions in susceptibility compared to wild type control RTV: RTV-010829 with V245E, I270M, V276I, R277K, V292I, V293I, E297K reverted
# Description: as §1, §2, §3, §4
# A resistance test vector containing all of the mutations present in RTV-010829 except for the V245E mutation (RTV-010829/245V) was constructed and tested using the phenotypic assay described earlier. The results were compared to those determined using the parent RTV-010829. We determined the pattern of phenotypic susceptibility to the NNRTIs, delavirdine, nevirapine and efavirenz, in the reverted vector RTV-010829/245V. […] A resistance test vector containing all of the mutations present in RTV-010829 except for the I270M (RTV-010829/270I) was constructed and tested using the phenotypic assay described earlier. […]
structure (smiles),measurement,setting,value
Cc1ccnc2c1NC(=O)c1cccnc1N2C1CC1 [nevirapine],drug-dependent stimulation of viral replication,M230L-RTV,~50%
same,reduction in susceptibility compared to wild type control RTV,M230L-RTV,39 fold and 40 fold
same,drug-dependent stimulation of viral replication,[1],~40%
same,reductions in susceptibility compared to wild type control RTV,[1],2.8 fold
same,drug-dependent stimulation of viral replication,K103N/M230L-RTV,~70%
same,reduction in susceptibility compared to wild type control RTV,K103N/M230L-RTV,> 600 fold
same,drug-dependent stimulation of viral replication,RTV-K103N/I135T/V245E,~15%
same,reductions in susceptibility compared to wild type control RTV,RTV-K103N/I135T/V245E,244 fold
same,drug-dependent stimulation of viral replication,RTV-309-3/184M,~80%
same,reduction in susceptibility compared to wild type control RTV,RTV-309-3/184M,9 fold
same,drug-dependent stimulation of viral replication,RTV-010829/245V-297E,no drug-dependent stimulation
same,reductions in susceptibility compared to wild type control RTV,RTV-010829/245V-297E,233 fold
CC(C)Nc1cccnc1N1CCN(C(=O)c2cc3cc(NS(C)(=O)=O)ccc3[nH]2)CC1 [delavirdine],drug-dependent stimulation of viral replication,M230L-RTV,~50%
same,reduction in susceptibility compared to wild type control RTV,M230L-RTV,58 fold
same,drug-dependent stimulation of viral replication,[1],~35%
same,reductions in susceptibility compared to wild type control RTV,[1],2.7 fold
same,drug-dependent stimulation of viral replication,K103N/M230L-RTV,~100%
same,reduction in susceptibility compared to wild type control RTV,K103N/M230L-RTV,> 250 fold
same,drug-dependent stimulation of viral replication,RTV-K103N/I135T/V245E,~20%
same,reductions in susceptibility compared to wild type control RTV,RTV-K103N/I135T/V245E,169 fold
same,drug-dependent stimulation of viral replication,RTV-309-3/184M,~50%
same,reduction in susceptibility compared to wild type control RTV,RTV-309-3/184M,4 fold
same,drug-dependent stimulation of viral replication,RTV-010829/245V-297E,no drug-dependent stimulation
same,reductions in susceptibility compared to wild type control RTV,RTV-010829/245V-297E,198 fold
O=C1Nc2ccc(Cl)cc2[C@@](C#CC2CC2)(C(F)(F)F)O1 [efavirenz],drug-dependent stimulation of viral replication,M230L-RTV,not
same,reduction in susceptibility compared to wild type control RTV,M230L-RTV,23 fold
same,drug-dependent stimulation of viral replication,[1],~30%
same,reductions in susceptibility compared to wild type control RTV,[1],2 fold
same,drug-dependent stimulation of viral replication,K103N/M230L-RTV,~40%
same,reduction in susceptibility compared to wild type control RTV,K103N/M230L-RTV,> 470 fold
same,drug-dependent stimulation of viral replication,RTV-K103N/I135T/V245E,no drug-dependent stimulation and not
same,reductions in susceptibility compared to wild type control RTV,RTV-K103N/I135T/V245E,93 fold
same,drug-dependent stimulation of viral replication,RTV-309-3/184M,~60%
same,reduction in susceptibility compared to wild type control RTV,RTV-309-3/184M,5 fold
same,drug-dependent stimulation of viral replication,RTV-010829/245V-297E,no drug-dependent stimulation
same,reductions in susceptibility compared to wild type control RTV,RTV-010829/245V-297E,76 fold

# — US6653081B2, “Methods for monitoring antiretroviral therapy and guiding therapeutic decision in the treatment of HIV/AIDS” (ViroLogic, Inc., priority 2000, dated 2003)
